Measured values published in patent publication US20160038516A1, “COMBINATION CANCER THERAPY USING BISPHOSPHONATES AND ANTI-EGFR AGENTS” (Mone Zaidi Consulting, Inc., priority 2012, published 2016).
“Also recorded” adds a separate entry of the source.

What was measured:
osteoclast formation = assay: Osteoclast formation assays in vitro; format: cell-based; details: data not shown
Method: We interrogated CMAP with this gene signature to identify chemicals with similar genomic mechanisms to bisphosphonates. Drug-drug matching was performed by a nonparametric, rank-based algorithm using Kolmogorov-Smirnov statistic. Gene Set Enrichment Analysis (GSEA) examined shared mechanisms of action to reveal both mimics and anti-mimics of a given compound or disease. Of the chemicals displaying the highest enrichment scores, the top two were anti-cancer agents, namely the PARP inhibitor 1,5-isoquinolinediol, and a first-generation EGFR kinase inhibitor tyrphostin AG1478 (FIG. 2). These compounds were confirmed as “true” bisphosphonate mimetics using osteoclast formation assays in vitro. As with bisphosphonates, osteoclast formation was inhibited by both 1,5-isoquinolinediol and tyrphostin AG1478, the latter in a concentration-dependent manner (data not shown).

recombinant EGFR = recombinant EGFR (Homo sapiens, UniProt P00533); details: 100 μM, incubated 1 hour
Chain of recombinant EGFR (P00533 25-1210): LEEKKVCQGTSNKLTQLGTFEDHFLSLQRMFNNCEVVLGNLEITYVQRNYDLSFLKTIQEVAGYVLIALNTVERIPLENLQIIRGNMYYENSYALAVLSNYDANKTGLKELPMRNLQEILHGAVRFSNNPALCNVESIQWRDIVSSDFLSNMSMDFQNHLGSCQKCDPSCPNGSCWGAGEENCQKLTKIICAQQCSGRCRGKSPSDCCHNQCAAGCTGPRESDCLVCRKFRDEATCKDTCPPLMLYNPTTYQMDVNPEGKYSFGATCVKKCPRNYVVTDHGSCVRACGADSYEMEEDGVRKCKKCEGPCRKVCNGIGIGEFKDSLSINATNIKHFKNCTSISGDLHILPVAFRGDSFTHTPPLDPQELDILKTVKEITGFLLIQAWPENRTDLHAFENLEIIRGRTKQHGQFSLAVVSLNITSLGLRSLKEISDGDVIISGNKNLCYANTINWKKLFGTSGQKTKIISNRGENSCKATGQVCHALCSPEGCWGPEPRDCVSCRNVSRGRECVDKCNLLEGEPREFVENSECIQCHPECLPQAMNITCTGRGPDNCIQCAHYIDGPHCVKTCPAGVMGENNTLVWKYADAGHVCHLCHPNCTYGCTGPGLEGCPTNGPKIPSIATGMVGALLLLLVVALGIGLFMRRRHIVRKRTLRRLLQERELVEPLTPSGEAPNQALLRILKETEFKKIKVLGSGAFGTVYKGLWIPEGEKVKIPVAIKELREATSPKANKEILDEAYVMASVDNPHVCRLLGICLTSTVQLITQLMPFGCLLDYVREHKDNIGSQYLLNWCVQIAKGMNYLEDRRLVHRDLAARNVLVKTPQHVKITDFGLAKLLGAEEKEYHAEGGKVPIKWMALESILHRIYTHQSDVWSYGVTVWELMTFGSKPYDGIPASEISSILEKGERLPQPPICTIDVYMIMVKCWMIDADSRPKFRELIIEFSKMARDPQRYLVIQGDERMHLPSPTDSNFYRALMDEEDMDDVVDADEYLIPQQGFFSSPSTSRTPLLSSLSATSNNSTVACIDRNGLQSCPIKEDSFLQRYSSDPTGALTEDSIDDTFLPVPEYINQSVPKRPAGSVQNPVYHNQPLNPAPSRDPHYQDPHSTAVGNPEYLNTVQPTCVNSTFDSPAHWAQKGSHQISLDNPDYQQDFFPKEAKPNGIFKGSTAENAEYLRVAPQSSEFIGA
Description: We used a cell-free in vitro kinase assay using recombinant EGF receptor (EGFR) to determine whether bisphosphonates inhibit the EGFR directly or indirectly. […] A kinase reaction was stimulated with the addition of ATP, following which phosphorylation of the substrate […] was detected using a horseradish peroxidase (HRP)-conjugated anti-phosphotyrosine antibody.

[1] = tested on: HCC827 (del746-750) lung cancer cell line; format: cell-based
Method: (§1) To validate this, we evaluated the cellular effects of bisphosphonates in EGFR-negative and EGFR-positive cancer cell lines. Mutated cancer cell lines, namely H520, H1666, H3255, HC827, A549, H1650, MCF-7, Caco-2, SW620, and SW480, were grown using standard protocols, and exposed to bisphosphonates. Thereafter, the cells were subject to the MTT assay to assess viability using a commercial kit. Additionally, in certain instances, annexin V staining was performed using a previously described protocol. Quantitative PCR (qPCR) for BCL, Bax, survivin, as well as for the thirteen bisphosphonate signature genes (FIG. 1) was carried out. Protein extracts were subject to SDS-PAGE followed by Western immunoblotting using antibodies to PARP, Akt (total and phosphorylated), Erk (total and phosphorylated), cyclin D1, cyclin B1, PCNA, and GAPDH (Santa Cruz, USA). Flow cytometry and colony forming assays were also performed.
(§2) Based on this prediction, and the common occurrence of these mutations in lung cancer patients, we examined the effect of available approved bisphosphonates on lung cancer cell lines that are driven by the L858R (H3255) or del746-750 (HCC827) mutation (FIGS. 6 and 7).

[2] = tested on: H3255 (L858R) lung cancer cell line
Method: as §1, §2

[3] = tested on: lung cancer cell line A549; details: A549, wild type EGFR, ras mutation driven
Method: as §1

recombinant Her2 = molecular target: T1, recombinant Her2 (Homo sapiens, UniProt P04626); assay: Cell-free in vitro kinase assay using recombinant Her2 (Kinase-Glo); format: biochemical; details: incubated 30 minutes with 50 ng recombinant Her2
T1 construct: purchased GENWAY
T1 sequence (P04626 23-1255): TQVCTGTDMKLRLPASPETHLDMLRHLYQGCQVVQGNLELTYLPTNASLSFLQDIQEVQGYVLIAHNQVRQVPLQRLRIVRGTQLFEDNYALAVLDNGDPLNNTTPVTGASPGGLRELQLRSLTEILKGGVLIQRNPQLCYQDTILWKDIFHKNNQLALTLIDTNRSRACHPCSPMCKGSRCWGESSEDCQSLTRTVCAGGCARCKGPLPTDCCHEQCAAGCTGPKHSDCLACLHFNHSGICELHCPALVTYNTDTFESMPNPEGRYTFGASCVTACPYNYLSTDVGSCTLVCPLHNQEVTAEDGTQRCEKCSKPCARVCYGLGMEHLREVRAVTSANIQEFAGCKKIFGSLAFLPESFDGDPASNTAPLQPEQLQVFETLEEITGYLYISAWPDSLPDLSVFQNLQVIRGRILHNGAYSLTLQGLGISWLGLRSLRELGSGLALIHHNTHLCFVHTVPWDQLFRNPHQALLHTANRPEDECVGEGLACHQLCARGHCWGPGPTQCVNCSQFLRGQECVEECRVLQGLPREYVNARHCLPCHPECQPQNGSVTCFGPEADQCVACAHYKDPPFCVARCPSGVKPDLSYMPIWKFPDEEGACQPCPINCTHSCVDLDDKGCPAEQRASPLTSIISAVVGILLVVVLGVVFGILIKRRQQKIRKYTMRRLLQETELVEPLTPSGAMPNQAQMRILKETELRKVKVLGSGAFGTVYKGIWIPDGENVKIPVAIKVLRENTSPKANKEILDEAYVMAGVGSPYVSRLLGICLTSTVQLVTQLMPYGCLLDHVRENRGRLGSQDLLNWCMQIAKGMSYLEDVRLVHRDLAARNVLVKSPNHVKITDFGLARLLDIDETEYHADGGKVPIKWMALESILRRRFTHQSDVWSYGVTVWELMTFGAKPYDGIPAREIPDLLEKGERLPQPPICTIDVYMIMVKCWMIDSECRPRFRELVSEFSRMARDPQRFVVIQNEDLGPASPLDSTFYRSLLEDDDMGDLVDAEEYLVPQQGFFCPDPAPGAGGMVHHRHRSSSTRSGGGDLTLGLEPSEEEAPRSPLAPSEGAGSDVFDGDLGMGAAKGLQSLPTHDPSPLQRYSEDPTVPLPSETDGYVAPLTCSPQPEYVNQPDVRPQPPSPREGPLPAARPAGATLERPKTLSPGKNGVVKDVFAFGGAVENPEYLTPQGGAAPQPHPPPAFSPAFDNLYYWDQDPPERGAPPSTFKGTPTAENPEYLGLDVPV
Method: We also performed a cell-free in vitro kinase assay to determine if bisphosphonates could inhibit Her2 activity. Briefly, Ert, ZA, Ris, MA, or Til (doses as shown in FIG. 28A) were incubated for 30 minutes with 50 ng recombinant Her2 or EGFR^L858R protein (GENWAY) at 4° C. and tyrosine kinase activity was measured. Following addition of assay buffer (SIGMA) which contained the poly(Glu, Tyr) (4:1) substrate and ATP, the kinase reaction was allowed to proceed for 30 minutes at 30° C. An equal volume of Kinase-Glo substrate (PROMEGA) was then added, and luminescence read manually (TD-20/20, TURNER DESIGN).

[4] = tested on: H1975 (L858R/T790M) lung adenocarcinoma cell line; assay: Colony formation, H1975; format: cell-based
Method: To test this hypothesis, colony formation and cell viability assays were carried out using a L858R/T790M-derived lung adenocarcinoma cell line, H1975.

HCC827 cells [5] = assay: FACS analysis and Western blotting for cell cycle and apoptosis, HCC827; format: cell-based
Method: as §1

HCC827 cells [6] = details: mouse, in vivo
Method: To verify that that the in vitro experiments described above translated to in vivo efficacy, the effect of bisphosphonates and EGFR inhibitors on tumors in mice were evaluated. HCC827 cells (1×10^8) were injected into the right flank of 6- to 8-week-old female BALB/c nu/nu mice. […] A total of 10 treatments were given, with a 48-hour rest period between injections. Tumor volumes were measured during the rest period following each treatment.
To verify the in vivo mechanism of action, Western analysis and immunohistochemistry were performed on tumor samples at the end of the 10-treatment course. For Western analysis, whole cell protein extracts were obtained with radio-immunoprecipitation assay buffer following standard protocols (Santa Cruz Biotechnology). […] Biotinylated anti-rabbit IgG (E0432, Dako) was used as secondary antibody. Staining was visualized using DAB, and slides were counterstained with hematoxylin, dehydrated, and mounted. Bright-field and fluorescent images were captured using a Stereoscope or Axioplan 2 IE microscope (Zeiss).

MDA-MB-231 cells [7] = assay: MTT cell viability, MDA-MB-231; format: cell-based; details: MDA-MB-231, overexpress EGFR
Description: (§3) Thereafter, the cells were subject to the MTT assay to assess viability using a commercial kit.

[8] = tested on: EGFR negative (SW620) colon cancer cell line; assay: Colony formation (clonogenic assay), SW620; format: cell-based
Method: as §1

HCC827 cells [9] = assay: Colony formation, HCC827; format: cell-based; details: tiludronate 40 μM
Method: as §1, §2

[10] = tested on: non-EGFR, non-HER2-expressing (MDA-MB-453) breast cancer cell line; assay: FACS cell cycle profile (sub-G1), MDA-MB-453; format: cell-based
MDA-MB-231 cells [11] = assay: Colony formation, MDA-MB-231; format: cell-based; details: tiludronate 20 μM, data not shown
[12] = tested on: EGFR-expressing colon cells (SW480); assay: Colony formation (clonogenic assay), SW480; format: cell-based
Method: as §1

[13] = tested on: HER2-expressing (BT474) breast cancer cell line; assay: FACS cell cycle profile (sub-G1), BT474; format: cell-based
[14] = tested on: EGFR-expressing (MDA-MB-231) breast cancer cell line; assay: FACS cell cycle profile (sub-G1), MDA-MB-231; format: cell-based
BT474 cells = assay: MTT cell viability, BT474; format: cell-based; details: BT474, overexpress Her2
Description: as §3

**Q.** With Oc1cccc2c(O)nccc12 [1,5-isoquinolinediol] as the compound, how does the osteoclast formation (osteoclast formation) read?
**A.** inhibited

**Q.** With NCCCC(O)(P(=O)(O)O)P(=O)(O)O [alendronate] as the compound, how does the EGFR kinase activity (recombinant EGFR) read?
**A.** directly inhibited EGFR kinase activity

**Q.** What about the “cell viability / cell survival” value [1] of the same compound?
**A.** inhibiting cell survival

**Q.** And the “cell viability / cell survival” value [2]?
**A.** inhibiting cell survival

**Q.** Which cell viability [3] does the source give for C#Cc1cccc(Nc2ncnc3cc(OCCOC)c(OCCOC)cc23)c1 [erlotinib] here?
**A.** poorly responsive

**Q.** And the “Her2 tyrosine kinase activity” value (recombinant Her2)?
**A.** inhibit the tyrosine kinase activity of Her2

**Q.** What about the colony formation [4] of the same compound?
**A.** did not inhibit colony formation

**Q.** What about the “cell cycle and apoptosis” value (HCC827 cells [5]) of the same compound?
**A.** mainly increased PARP expression and apoptosis

**Q.** And the “AKT phosphorylation in tumor samples” value (HCC827 cells [6])?
**A.** inhibited AKT phosphorylation

**Q.** What about the “CD31 expression (blood vessels) in tumors” value (HCC827 cells [6]) of the same compound?
**A.** inhibited CD31 expression

**Q.** And the “ERK phosphorylation in tumor samples” value (HCC827 cells [6])?
**A.** did not inhibit ERK phosphorylation

**Q.** Which “cell viability / cell survival” value [1] does the source give for O=P(O)(O)C(NC1CCCCCC1)P(=O)(O)O [incadronate] here?
**A.** inhibiting cell survival

**Q.** And the “cell viability / cell survival” value [2]?
**A.** inhibiting cell survival

**Q.** O=P(O)(O)C(O)(Cc1cnc2ccccn12)P(=O)(O)O [minodronic acid] was tested. Which “cell viability / cell survival” value [1] did it give?
**A.** inhibiting cell survival; also recorded: two most potent

**Q.** What about the “Her2 tyrosine kinase activity” value (recombinant Her2) of the same compound?
**A.** inhibit the tyrosine kinase activity of Her2

**Q.** What about the “cell viability / cell survival” value [2] of the same compound?
**A.** inhibiting cell survival; also recorded: two most potent

**Q.** How did the “cell viability / cell survival” value [1] turn out when NCCCCCC(O)(P(=O)(O)O)P(=O)(O)O [neridronate] was run?
**A.** failed to affect HCC827 cell viability

**Q.** Which “cell viability / cell survival” value [1] does the source give for NCCC(O)(P(=O)(O)O)P(=O)(O)O [pamidronate] here?
**A.** failed to affect HCC827 cell viability

**Q.** How did the “cell viability / cell survival” value [1] turn out when O=P(O)(O)C(O)(Cc1cccnc1)P(=O)(O)O [risedronate] was run?
**A.** inhibiting cell survival

**Q.** What about the “Her2 tyrosine kinase activity” value (recombinant Her2) of the same compound?
**A.** inhibit the tyrosine kinase activity of Her2

**Q.** And the “cell viability / cell survival” value [2]?
**A.** inhibiting cell survival

**Q.** Which results are given for O=P(O)(O)C(Sc1ccc(Cl)cc1)P(=O)(O)O [tiludronate]?
**A.** cell viability / cell survival [1]: failed to affect cell viability; also recorded: without effect; cell viability (MDA-MB-231 cells [7]): has no effect; colony formation [8]: has no effect; Her2 tyrosine kinase activity (recombinant Her2): inhibit the tyrosine kinase activity of Her2; colony formation (HCC827 cells [9]): not seen; sub-G1 fraction (apoptosis) [10]: has no effect; colony formation (MDA-MB-231 cells [11]): not seen; colony formation [4]: did not affect colony formation; colony formation [12]: has no effect; sub-G1 fraction (apoptosis) [13]: has no effect; sub-G1 fraction (apoptosis) [14]: has no effect; cell viability (BT474 cells): has no effect; cell viability / cell survival [2]: failed to affect cell viability; also recorded: without effect

**Q.** With COc1cc2ncnc(Nc3cccc(Cl)c3)c2cc1OC [tyrphostin AG1478] as the compound, how does the osteoclast formation (osteoclast formation) read?
**A.** inhibited
